Reference: PubChem BioAssay (NCI)
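Grown in 96-well plates, cells were treated for 48 hours with each compound at five concentrations. Insufficient inhibition: endpoint recorded as highest concentration tested. GI50 marks 50% less growth. At the TGI there is no net growth.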

Key:
Assay in all cases: growth of human tumour cells (NCI), 48 h
786-0 renal = system: 786-0 renal
A498 renal = system: A498 renal
A549 NSCLC = system: A549 NSCLC
ACHN renal = system: ACHN renal
CAKI-1 renal = system: CAKI-1 renal
CCRF-CEM leukemia = system: CCRF-CEM leukemia
COLO 205 colon = system: COLO 205 colon
DU-145 prostate = system: DU-145 prostate
EKVX NSCLC = system: EKVX NSCLC
HCC-2998 colon = system: HCC-2998 colon
HCT-116 colon = system: HCT-116 colon
HCT-15 colon = system: HCT-15 colon
HL-60(TB) leukemia = system: HL-60(TB) leukemia
HOP-62 NSCLC = system: HOP-62 NSCLC
HOP-92 NSCLC = system: HOP-92 NSCLC
HS 578T breast = system: HS 578T breast
HT29 colon = system: HT29 colon
IGROV1 ovarian = system: IGROV1 ovarian
K-562 leukemia = system: K-562 leukemia
KM12 colon = system: KM12 colon
LOX IMVI melanoma = system: LOX IMVI melanoma
M14 melanoma = system: M14 melanoma
MALME-3M melanoma = system: MALME-3M melanoma
MCF7 breast = system: MCF7 breast
MDA-MB-231 breast = system: MDA-MB-231 breast
MDA-MB-435 = system: MDA-MB-435
MDA-N = system: MDA-N
MOLT-4 leukemia = system: MOLT-4 leukemia
NCI-H226 lung = system: NCI-H226 lung
NCI-H23 lung = system: NCI-H23 lung
NCI-H460 lung = system: NCI-H460 lung
NCI-H522 lung = system: NCI-H522 lung
NCI/ADR-RES ovarian = system: NCI/ADR-RES ovarian
OVCAR-3 ovarian = system: OVCAR-3 ovarian
OVCAR-4 ovarian = system: OVCAR-4 ovarian
OVCAR-5 ovarian = system: OVCAR-5 ovarian
OVCAR-8 ovarian = system: OVCAR-8 ovarian
PC-3 prostate = system: PC-3 prostate
RPMI-8226 leukemia = system: RPMI-8226 leukemia
RXF 393 renal = system: RXF 393 renal
SF-268 CNS = system: SF-268 CNS
SF-295 CNS = system: SF-295 CNS
SF-539 CNS = system: SF-539 CNS
SK-MEL-2 melanoma = system: SK-MEL-2 melanoma
SK-MEL-28 melanoma = system: SK-MEL-28 melanoma
SK-MEL-5 melanoma = system: SK-MEL-5 melanoma
SK-OV-3 ovarian = system: SK-OV-3 ovarian
SN12C renal = system: SN12C renal
SNB-19 CNS = system: SNB-19 CNS
SNB-75 CNS = system: SNB-75 CNS
SR leukemia = system: SR leukemia
SW-620 colon = system: SW-620 colon
T-47D breast = system: T-47D breast
TK-10 renal = system: TK-10 renal
U251 CNS = system: U251 CNS
UACC-257 melanoma = system: UACC-257 melanoma
UACC-62 melanoma = system: UACC-62 melanoma
UO-31 renal = system: UO-31 renal

NS(=O)(=O)c1ccc(/C=C/c2cccc(O)c2)cc1
TGI (786-0 renal): > 100 µM
TGI (A498 renal): > 100 µM
GI50 (A549 NSCLC): 19.8 µM
TGI (A549 NSCLC): > 100 µM
GI50 (ACHN renal): 25.8 µM
TGI (ACHN renal): 99.6 µM
GI50 (CAKI-1 renal): 50.2 µM
TGI (CAKI-1 renal): > 100 µM
GI50 (CCRF-CEM leukemia): 16.1 µM
TGI (CCRF-CEM leukemia): > 100 µM
TGI (COLO 205 colon): 45.9 µM
TGI (DU-145 prostate): > 100 µM
TGI (EKVX NSCLC): > 100 µM
TGI (HCC-2998 colon): > 100 µM
TGI (HCT-116 colon): > 100 µM
GI50 (HCT-15 colon): 22.8 µM
TGI (HCT-15 colon): > 100 µM
GI50 (HL-60(TB) leukemia): 41.4 µM
TGI (HL-60(TB) leukemia): > 100 µM
TGI (HOP-62 NSCLC): > 100 µM
GI50 (HOP-92 NSCLC): 17.4 µM
TGI (HOP-92 NSCLC): 65.9 µM
GI50 (HS 578T breast): 61 µM
TGI (HS 578T breast): > 100 µM
GI50 (HT29 colon): 43.3 µM
TGI (HT29 colon): > 100 µM
GI50 (IGROV1 ovarian): 30.2 µM
TGI (IGROV1 ovarian): > 100 µM
GI50 (K-562 leukemia): 43.4 µM
TGI (K-562 leukemia): > 100 µM
GI50 (KM12 colon): 35.4 µM
TGI (KM12 colon): > 100 µM
GI50 (LOX IMVI melanoma): 43 µM
TGI (LOX IMVI melanoma): > 100 µM
TGI (M14 melanoma): > 100 µM
TGI (MALME-3M melanoma): > 100 µM
TGI (MCF7 breast): > 100 µM
TGI (MDA-MB-231 breast): > 100 µM
GI50 (MDA-MB-435): 25.8 µM
TGI (MDA-MB-435): > 100 µM
TGI (MDA-N): > 100 µM
GI50 (MOLT-4 leukemia): 20 µM
TGI (MOLT-4 leukemia): > 100 µM
GI50 (NCI-H226 lung): 25.8 µM
TGI (NCI-H226 lung): 74.3 µM
GI50 (NCI-H23 lung): 46.1 µM
TGI (NCI-H23 lung): > 100 µM
TGI (NCI-H460 lung): > 100 µM
GI50 (NCI-H522 lung): 12.2 µM
TGI (NCI-H522 lung): 44.4 µM
TGI (NCI/ADR-RES ovarian): > 100 µM
TGI (OVCAR-3 ovarian): 80.4 µM
GI50 (OVCAR-4 ovarian): 27.8 µM
TGI (OVCAR-4 ovarian): > 100 µM
TGI (OVCAR-5 ovarian): > 100 µM
GI50 (OVCAR-8 ovarian): 25.2 µM
TGI (OVCAR-8 ovarian): 58.7 µM
TGI (PC-3 prostate): > 100 µM
GI50 (RPMI-8226 leukemia): 18.9 µM
TGI (RPMI-8226 leukemia): 57.7 µM
TGI (RXF 393 renal): > 100 µM
GI50 (SF-268 CNS): 65.6 µM
TGI (SF-268 CNS): > 100 µM
TGI (SF-295 CNS): > 100 µM
GI50 (SF-539 CNS): 36.7 µM
TGI (SF-539 CNS): > 100 µM
TGI (SK-MEL-2 melanoma): 78.2 µM
TGI (SK-MEL-28 melanoma): > 100 µM
TGI (SK-MEL-5 melanoma): 48.4 µM
TGI (SK-OV-3 ovarian): > 100 µM
TGI (SN12C renal): > 100 µM
TGI (SNB-19 CNS): > 100 µM
TGI (SNB-75 CNS): 99 µM
GI50 (SR leukemia): 17.8 µM
TGI (SR leukemia): > 100 µM
TGI (SW-620 colon): > 100 µM
TGI (T-47D breast): 87.4 µM
TGI (TK-10 renal): 93.7 µM
GI50 (U251 CNS): 21.1 µM
TGI (U251 CNS): > 100 µM
TGI (UACC-257 melanoma): > 100 µM
GI50 (UACC-62 melanoma): 18.6 µM
TGI (UACC-62 melanoma): 50.4 µM
TGI (UO-31 renal): 64.2 µM

C=C(Br)CN(C#N)CC(=C)Br
TGI (786-0 renal): > 100 µM
TGI (A498 renal): > 100 µM
TGI (A549 NSCLC): > 100 µM
TGI (ACHN renal): > 100 µM
TGI (CAKI-1 renal): > 100 µM
TGI (CCRF-CEM leukemia): > 100 µM
TGI (COLO 205 colon): > 100 µM
TGI (DU-145 prostate): > 100 µM
TGI (EKVX NSCLC): > 100 µM
TGI (HCC-2998 colon): > 100 µM
TGI (HCT-116 colon): > 100 µM
TGI (HCT-15 colon): > 100 µM
TGI (HL-60(TB) leukemia): > 100 µM
TGI (HOP-62 NSCLC): > 100 µM
TGI (HS 578T breast): > 100 µM
TGI (HT29 colon): > 100 µM
TGI (IGROV1 ovarian): > 100 µM
TGI (K-562 leukemia): > 100 µM
TGI (KM12 colon): > 100 µM
TGI (LOX IMVI melanoma): > 100 µM
TGI (M14 melanoma): > 100 µM
TGI (MALME-3M melanoma): > 100 µM
TGI (MCF7 breast): > 100 µM
TGI (MDA-MB-231 breast): > 100 µM
TGI (MDA-MB-435): > 100 µM
TGI (MDA-N): > 100 µM
TGI (MOLT-4 leukemia): > 100 µM
TGI (NCI-H226 lung): > 100 µM
TGI (NCI-H23 lung): > 100 µM
TGI (NCI-H460 lung): > 100 µM
TGI (NCI-H522 lung): > 100 µM
TGI (NCI/ADR-RES ovarian): > 100 µM
TGI (OVCAR-3 ovarian): > 100 µM
TGI (OVCAR-4 ovarian): > 100 µM
TGI (OVCAR-5 ovarian): > 100 µM
TGI (OVCAR-8 ovarian): > 100 µM
TGI (PC-3 prostate): > 100 µM
TGI (RPMI-8226 leukemia): > 100 µM
TGI (RXF 393 renal): > 100 µM
TGI (SF-268 CNS): > 100 µM
TGI (SF-295 CNS): > 100 µM
TGI (SF-539 CNS): > 100 µM
TGI (SK-MEL-2 melanoma): > 100 µM
TGI (SK-MEL-28 melanoma): > 100 µM
TGI (SK-MEL-5 melanoma): > 100 µM
TGI (SK-OV-3 ovarian): > 100 µM
TGI (SN12C renal): > 100 µM
TGI (SNB-19 CNS): > 100 µM
TGI (SNB-75 CNS): > 100 µM
TGI (SR leukemia): > 100 µM
TGI (SW-620 colon): > 100 µM
TGI (T-47D breast): > 100 µM
TGI (TK-10 renal): > 100 µM
TGI (U251 CNS): > 100 µM
TGI (UACC-257 melanoma): > 100 µM
TGI (UACC-62 melanoma): > 100 µM
TGI (UO-31 renal): > 100 µM

CC1(C)CCOC(=O)C(Cl)CC1Cl (centres undefined)
TGI (786-0 renal): > 100 µM
TGI (A498 renal): > 100 µM
TGI (A549 NSCLC): > 100 µM
TGI (ACHN renal): > 100 µM
TGI (CAKI-1 renal): > 100 µM
TGI (CCRF-CEM leukemia): > 100 µM
TGI (COLO 205 colon): > 100 µM
TGI (DU-145 prostate): > 100 µM
TGI (EKVX NSCLC): > 100 µM
TGI (HCC-2998 colon): > 100 µM
TGI (HCT-116 colon): > 100 µM
TGI (HCT-15 colon): > 100 µM
TGI (HOP-62 NSCLC): > 100 µM
TGI (HS 578T breast): > 100 µM
TGI (HT29 colon): > 100 µM
TGI (IGROV1 ovarian): > 100 µM
TGI (K-562 leukemia): > 100 µM
TGI (KM12 colon): > 100 µM
TGI (LOX IMVI melanoma): > 100 µM
TGI (M14 melanoma): > 100 µM
TGI (MALME-3M melanoma): > 100 µM
TGI (MCF7 breast): > 100 µM
TGI (MDA-MB-231 breast): > 100 µM
TGI (MDA-MB-435): > 100 µM
TGI (MDA-N): > 100 µM
TGI (MOLT-4 leukemia): > 100 µM
TGI (NCI-H226 lung): > 100 µM
TGI (NCI-H23 lung): > 100 µM
TGI (NCI-H460 lung): > 100 µM
TGI (NCI-H522 lung): > 100 µM
TGI (NCI/ADR-RES ovarian): > 100 µM
TGI (OVCAR-3 ovarian): > 100 µM
TGI (OVCAR-4 ovarian): > 100 µM
TGI (OVCAR-5 ovarian): > 100 µM
TGI (OVCAR-8 ovarian): > 100 µM
TGI (PC-3 prostate): > 100 µM
TGI (RXF 393 renal): > 100 µM
TGI (SF-268 CNS): > 100 µM
TGI (SF-295 CNS): > 100 µM
TGI (SF-539 CNS): > 100 µM
TGI (SK-MEL-2 melanoma): > 100 µM
TGI (SK-MEL-28 melanoma): > 100 µM
TGI (SK-MEL-5 melanoma): > 100 µM
TGI (SK-OV-3 ovarian): > 100 µM
TGI (SN12C renal): > 100 µM
TGI (SNB-19 CNS): > 100 µM
TGI (SR leukemia): > 100 µM
TGI (SW-620 colon): > 100 µM
TGI (T-47D breast): > 100 µM
TGI (TK-10 renal): > 100 µM
TGI (U251 CNS): > 100 µM
TGI (UACC-257 melanoma): > 100 µM
TGI (UACC-62 melanoma): > 100 µM
